Measurements as given in BindingDB's records for doi:10.1021/jm900194w (The Hong Kong Polytechnic University, 2009).

Assay: Reversal of MRP1-mediated doxorubicin-resistance in human HeLa-T5 cells assessed as reduction of doxorubicin IC50 percent by half

EC50: 93 nM
Structure (SMILES): Cc1onc2c1c(=O)n([C@H]1CCC[C@@H](CNC(=O)c3ccccc3)C1)c1cccc(Cl)c21 (racemic) [N-(((1R,3S)-3-(9-chloro-3-methyl-4-oxoisoxazolo[4,3-c]quinolin-5(4H)-yl)cyclohexyl)methyl)benzamide]
